Results taken from ChEMBL document CHEMBL1128973, “Potent matrix metalloproteinase inhibitors: Amino-carboxylate compounds containing modifications of the P1 residue” (Bioorg Med Chem Lett, 1996).
pIC50: −log10 of the molar value.

What follows are compounds tested against Stromelysin-1 (Homo sapiens, UniProt P08254) (assay: Inhibitory activity against Matrix metalloprotease-3).
Stromelysin-1, sequence (P08254 whole entry): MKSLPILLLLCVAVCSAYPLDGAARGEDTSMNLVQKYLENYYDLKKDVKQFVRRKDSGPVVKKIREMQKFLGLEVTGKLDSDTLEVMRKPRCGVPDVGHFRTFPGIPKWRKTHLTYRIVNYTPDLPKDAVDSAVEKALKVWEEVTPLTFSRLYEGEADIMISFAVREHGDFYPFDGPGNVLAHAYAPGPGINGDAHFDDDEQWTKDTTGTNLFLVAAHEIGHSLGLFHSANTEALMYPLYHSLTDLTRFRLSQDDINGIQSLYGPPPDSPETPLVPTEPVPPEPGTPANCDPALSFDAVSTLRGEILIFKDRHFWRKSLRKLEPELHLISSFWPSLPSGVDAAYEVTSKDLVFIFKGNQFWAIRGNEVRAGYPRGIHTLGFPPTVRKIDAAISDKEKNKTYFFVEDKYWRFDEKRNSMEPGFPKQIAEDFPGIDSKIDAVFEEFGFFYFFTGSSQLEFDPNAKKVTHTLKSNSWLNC

| Structure (SMILES) | pIC50 |
| --- | --- |
| COc1ccc(S(=O)(=O)NCC[C@H](N[C@@H](CCc2ccccc2)C(=O)N[C@@H](CC(C)C)C(=O)NOCc2ccccc2)C(=O)O)cc1 | 6.26 |
| Cc1ccc(S(=O)(=O)NCC[C@H](N[C@@H](CCc2ccccc2)C(=O)N[C@@H](CC(C)C)C(=O)Nc2ccccc2)C(=O)O)cc1 | 7.30 |
| COc1ccc(S(=O)(=O)NCC[C@H](N[C@@H](CCc2ccccc2)C(=O)N[C@@H](CC(C)C)C(=O)Nc2ccccc2)C(=O)O)cc1 | 7.30 |
| CCOC(=O)N1CCN(C(=O)[C@H](CCc2ccccc2)N[C@@H](CCNS(=O)(=O)c2ccc(OC)cc2)C(=O)O)CC1 | < 4.70 |
| CNC(=O)[C@H](Cc1ccccc1)NC(=O)[C@H](CCc1ccccc1)N[C@@H](CCN1C(=O)NC2(CCCC2)C1=O)C(=O)O | 5.72 |
| CNC(=O)[C@H](Cc1ccccc1)NC(=O)[C@H](CCc1ccccc1)N[C@@H](CCNS(=O)(=O)c1ccc2ccccc2c1)C(=O)O | 6.29 |
| COc1ccc(S(=O)(=O)NCC[C@H](N[C@@H](CCc2ccccc2)C(=O)N2CCC(O)CC2)C(=O)O)cc1 | < 4.70 |
| CNC(=O)[C@H](Cc1ccccc1)NC(=O)[C@H](CCc1ccccc1)N[C@@H](CCNS(=O)(=O)c1ccc(C)cc1)C(=O)O | 6.92 |
| CNC(=O)c1ccc(CNC(=O)[C@H](CCc2ccccc2)N[C@@H](CCNS(=O)(=O)c2ccc(OC)cc2)C(=O)O)cc1 | 4.74 |
| COc1ccc(S(=O)(=O)NCC[C@H](N[C@@H](CCc2ccccc2)C(=O)N2CCN(S(C)(=O)=O)CC2)C(=O)O)cc1 | < 4.70 |
| COc1ccc(S(=O)(=O)NCC[C@H](N[C@@H](CCc2ccccc2)C(=O)NCc2ccc(C(=O)O)cc2)C(=O)O)cc1 | 4.85 |
| CNC(=O)[C@H](Cc1ccccc1)NC(=O)[C@H](CCc1ccccc1)N[C@@H](CCNC(=O)c1cc2ccccc2[nH]1)C(=O)O | 5.96 |
| CCOC(=O)N1CCC(NC(=O)[C@H](CCc2ccccc2)N[C@@H](CCNS(=O)(=O)c2ccc(OC)cc2)C(=O)O)CC1 | < 4.70 |
| COc1ccc(S(=O)(=O)NCC[C@H](N[C@@H](CCc2ccccc2)C(=O)N2CCOCC2)C(=O)O)cc1 | < 4.70 |
